Test results as given in patent US20090246169A1, “INDOLOPYRIDINES AS EG5 KINESIN MODULATORS” (priority 2006, published 2009).

Each compound was assayed on RKO p21 colon adenocarcinoma cells, uninduced (proliferating) (assay: Alamar Blue cell viability assay, RKO p21 uninduced (proliferating)). Details: Homo sapiens; anti-proliferative/cytotoxic activity, 72 hours, without Ponasterone A; read-out: −log EC50 [mol/l] RKO p21 uninduced (proliferating) (converted).
Assay type: cell-based
Procedure: The anti-proliferative/cytotoxic activity of the compounds described herein can be tested on subclones of RKO human colon adenocarcinoma cells (Schmidt et al., Oncogene 19, 2423-2429; 2000) using the Alamar Blue cell viability assay (described in O'Brien et al. Eur J Biochem 267, 5421-5426, 2000). The compounds are dissolved as 10 mM solutions in DMSO and subsequently diluted in semi-logarithmic steps. DMSO dilutions are further diluted 1:100 into Dulbecco's modified Eagle's medium (DMEM) containing 10% fetal calf serum to a final concentration twice as much as the final concentration in the test. RKO subclones are seeded into 96 well flat bottom plates at a density of 4000 cells per well in a volume of 50 μl per well. 24 hours after seeding the 50 μl each of the compound dilutions in DMEM medium are added into each well of the 96 well plate. Each compound dilution is tested as triplicates. Wells containing untreated control cells are filled with 50 μl DMEM medium containing 1% DMSO. The cells are then incubated with the substances for 72 hours at 37° C. in a humidified atmosphere containing 5% carbon dioxide. To determine the viability of the cells, 10 μl of an Alamar Blue solution (Biosource) are added and the fluorescence is measured at an extinction of 544 nm and an emission of 590 nm. For the calculation of the cell viability the emission value from untreated cells is set as 100% viability and the emission rates of treated cells are set in relation to the values of untreated cells. Viabilities are expressed as % values. The Graphpad Prism program is used for the calculation of EC50 values for anti-proliferative/cytotoxic activity out of the obtained dose-response curves.
To determine the cell cycle specific mode of action, subclones of RKO colon adenocarcinoma cells (RKOp21 or RKOp27 as described by Schmidt et al. in Oncogene 19, 2423-2429; 2000) are seeded into 96 well flat bottom plates at a density of 16000 cells per well in a volume of 50 μl per well in DMEM growth medium with 10% FCS containing 10 μM Ponasterone A. 24 hours after seeding the 50 μl each of the compound dilutions in DMEM medium are added into each well of the 96-well plate. Each compound dilution is tested as triplicates. Wells containing untreated control cells are filled with 50 μl DMEM medium containing 1% DMSO. The cells are then incubated with the substances for 72 hours at 37° C. in a humidified atmosphere containing 5% carbon dioxide. To determine the viability of the cells, 10 μl of an Alamar Blue solution (Biosource) are added and the fluorescence is measured at an extinction of 544 nm and an emission of 590 nm. For the calculation of the cell viability the emission value from untreated cells is set as 100% viability and the emission rates of treated cells are set in relation to the values of untreated cells. Viabilities are expressed as % values. The Graphpad Prism program (GraphPad Software, Inc) is used for the calculation of EC50 values out of the obtained dose-response curves. Viability is compared of proliferating cells grown in the absence of the inducer Ponasterone A, versus viability of cells arrested by the expression of ectopic p27Kip1 induced by Ponasterone A.
Representative values for anti-proliferation/cytotoxicity [measured as −log EC50 (mol/l)] determined in the aforementioned assays follow from the following tables B1 and B2, in which the numbers of the compounds correspond to the numbers of the examples.

Compound | EC50 [µM]
C=CCNCCCN1C(=O)N2[C@H](c3ccccc3)c3[nH]c4ccc(OC)cc4c3C[C@@]2(C)C1=O (racemic) [Example 77, (3aSR, 10RS)-2-(3-Allyl-amino-propyl)-6-methoxy-3a-methyl-10-phenyl-3a,4,9,10-tetrahydro-2,9,10a-triaza-cyclopenta[b]fluorene-1,3-dione] | ≤ 1
COc1ccc2[nH]c3c(c2c1)C[C@@]1(C)C(=O)N(CCN2CCCCCC2)C(=O)N1[C@@H]3c1ccccc1 (racemic) [Example 43, (3aSR, 10RS)-2-(2-Azepan-1-yl-ethyl)-6-methoxy-3a-methyl-10-phenyl-3a,4,9,10-tetrahydro-2,9,10a-triaza-cyclopenta[b]fluorene-1,3-dione] | ≤ 1
COc1ccc2[nH]c3c(c2c1)C[C@@]1(C)C(=O)N(CCN(C)CCO)C(=O)N1[C@@H]3c1ccccc1 (racemic) [Example 30, (3aSR, 10RS)-2-{2-[(2-Hydroxy-ethyl)-methyl-amino]-ethyl}-6-methoxy-3a-methyl-10-phenyl-3a,4,9,10-tetrahydro-2,9,10a-triaza-cyclopenta[b]fluorene-1,3-dione] | ≤ 1
CC[C@@]12Cc3c([nH]c4ccc(OC)cc34)[C@@H](c3ccccc3)N1C(=O)N(CCCN(C)C)C2=O (racemic) [Example 6, (3aSR,10RS)-2-(3-Dimethylamino-propyl)-3a-ethyl-6-methoxy-10-phenyl-3a,4,9,10-tetrahydro-2,9,10a-triaza-cyclopenta[b]fluorene-1,3-dione] | ≤ 1
CCN(CCCN1C(=O)N2[C@H](c3ccccc3)c3[nH]c4ccc(OC)cc4c3C[C@@]2(C)C1=O)CCOC (racemic) [Example 56, (3aSR, 10RS)-2-{3-[Ethyl-(2-methoxy-ethyl)-amino]-propyl}-6-methoxy-3a-methyl-10-phenyl-3a,4,9,10-tetrahydro-2,9,10a-triaza-cyclopenta[b]fluorene-1,3-dione] | ≤ 1
COc1ccc2[nH]c3c(c2c1)C[C@@]1(C)C(=O)N(CCNCC(C)C)C(=O)N1[C@@H]3c1ccccc1 (racemic) [Example 35, (3aSR, 10RS)-2-(2-Isobutyl-amino-ethyl)-6-methoxy-3a-methyl-10-phenyl-3a,4,9,10-tetrahydro-2,9,10a-triaza-cyclopenta[b]fluorene-1,3-dione] | ≤ 1
COc1ccc2[nH]c3c(c2c1)C[C@@]1(C)C(=O)N(CCNCCO)C(=O)N1[C@@H]3c1ccccc1 (racemic) [Example 26, (3aSR, 10RS)-2-[2-(2-Hydroxy-ethylamino)-ethyl]-6-methoxy-3a-methyl-10-phenyl-3a,4,9,10-tetrahydro-2,9,10a-triaza-cyclopenta[b] fluorene-1,3-dione] | ≤ 1
COc1ccc2[nH]c3c(c2c1)C[C@@]1(C)C(=O)N(CCCN)C(=O)N1[C@@H]3c1ccccc1 (racemic) [Example 7, (3aSR,10RS)-2-(3-Amino-propyl)-6-methoxy-3a-methyl-10-phenyl-3a,4,9,10-tetrahydro-2,9,10a-triaza-cyclopenta[b]fluorene-1,3-dione] | ≤ 1
COc1ccc2[nH]c3c(c2c1)C[C@@]1(C)C(=O)N(CCN2CCC2)C(=O)N1[C@@H]3c1ccccc1 (racemic) [Example 16, (3aSR,10RS)-2-(2-Azetidin-1-yl-ethyl)-6-methoxy-3a-methyl-10-phenyl-3a,4,9,10-tetrahydro-2,9,10a-triaza-cyclopenta[b]fluorene-1,3-dione] | ≤ 1
CCN(CCO)CCN1C(=O)N2[C@H](c3ccccc3)c3[nH]c4ccc(OC)cc4c3C[C@@]2(C)C1=O (racemic) [Example 36, (3aSR, 10RS)-2-{2-[Ethyl-(2-hydroxy-ethyl)-amino]-ethyl}-6-methoxy-3a-methyl-10-phenyl-3a,4,9,10-tetra-hydro-2,9,10a-triaza-cyclo-penta[b]fluorene-1,3-dione] | ≤ 1
COc1ccc2[nH]c3c(c2c1)C[C@@]1(C)C(=O)N(CCN2CC=CCC2)C(=O)N1[C@@H]3c1ccccc1 (racemic) [Example 33, (3aSR, 10RS)-2-[2-(3,6-Dihydro-2H-pyridin-1-yl)-ethyl]-6-methoxy-3a-methyl-10-phenyl-3a,4,9,10-tetra-hydro-2,9,10a-triaza-cyclo-penta[b]fluorene-1,3-dione] | ≤ 1
COc1ccc2[nH]c3c(c2c1)C[C@@]1(C)C(=O)N(CCCNCC(C)C)C(=O)N1[C@@H]3c1ccccc1 (racemic) [Example 52, (3aSR, 10RS)-2-(3-Isobutylamino-propyl)-6-methoxy-3a-methyl-10-phenyl-3a,4,9,10-tetrahydro-2,9,10a-triaza-cyclopenta[b] fluorene-1,3-dione] | ≤ 1
COc1ccc2[nH]c3c(c2c1)C[C@@]1(C)C(=O)N(CCN2CCCCC2)C(=O)N1[C@@H]3c1ccccc1 (racemic) [Example 32, (3aSR, 10RS)-6-Methoxy-3a-methyl-10-phenyl-2-(2-piperidin-1-yl-ethyl)-3a,4,9,10-tetrahydro-2,9,10a-triaza-cyclopenta[b]fluorene-1,3-dione] | ≤ 1
COc1ccc2[nH]c3c(c2c1)C[C@@]1(C)C(=O)N(CCCN(C)C)C(=O)N1[C@@H]3c1ccccc1 (racemic) [Example 45, (3aSR, 10RS)-2-(3-Dimethylamino-propyl)-6-methoxy-3a-methyl-10-phenyl-3a,4,9,10-tetrahydro-2,9,10a-triaza-cyclopenta[b] fluorene-1,3-dione] | ≤ 1
COc1ccc2[nH]c3c(c2c1)C[C@@]1(C)C(=O)N(CCCNCCO)C(=O)N1[C@@H]3c1ccccc1 (racemic) [Example 75, (3aSR, 10RS)-2-[3-(2-Hydroxy-ethylamino)-propyl]-6-methoxy-3a-methyl-10-phenyl-3a,4,9,10-tetrahydro-2,9,10a-triaza-cyclopenta[b] fluorene-1,3-dione] | ≤ 1
CC[C@@]12Cc3c([nH]c4ccc(OC)cc34)[C@@H](c3ccccc3)N1C(=O)N(CCN(C)C)C2=O (racemic) [Example 5, (3aSR,10RS)-2-(2-Dimethylamino-ethyl)-3a-ethyl-6-methoxy-10-phenyl-3a,4,9,10-tetrahydro-2,9,10a-triaza-cyclopenta[b]fluorene-1,3-dione] | ≤ 1
COc1ccc2[nH]c3c(c2c1)C[C@@]1(C)C(=O)N(CCN2CCN(C)CC2)C(=O)N1[C@@H]3c1ccccc1 (racemic) [Example 34, (3aSR, 10RS)-6-Methoxy-3a-methyl-2-[2-(4-methyl-piperazin-1-yl)-ethyl]-10-phenyl-3a,4,9,10-tetrahydro-2,9,10a-triaza-cyclopenta[b] fluorene-1,3-dione] | ≤ 1
COc1ccc2[nH]c3c(c2c1)C[C@@]1(C)C(=O)N(CCCNCC2CC2)C(=O)N1[C@@H]3c1ccccc1 (racemic) [Example 74, (3aSR, 10RS)-2-[3-(Cyclo-propylmethyl-amino)-propyl]-6-methoxy-3a-methyl-10-phenyl-3a,4,9,10-tetrahydro-2,9,10a-triaza-cyclopenta[b] fluorene-1,3-dione] | ≤ 1
COc1ccc2[nH]c3c(c2c1)C[C@@]1(C)C(=O)N(CCCNC2CCC2)C(=O)N1[C@@H]3c1ccccc1 (racemic) [Example 72, (3aSR, 10RS)-2-(3-Cyclo-butylamino-propyl)-6-methoxy-3a-methyl-10-phenyl-3a,4,9,10-tetrahydro-2,9,10a-triaza-cyclopenta[b] fluorene-1,3-dione] | ≤ 1
